What was measured:
Format in all cases: cell-based
PD-L1 [1] = assay: Total PD-L1 expression by Western blotting in cancer cell lines; settings: 12.5 μM Compound A
Experimental: (§1) Experimental Overview. Programmed death-ligand 1 (PD-L1) is a type 1 transmembrane protein that plays a major role in suppressing the innate and adaptive arms of the immune system. The PD-1/PD-L1 pathway represents an adaptive immune resistance mechanism exerted by tumor cells in response to endogenous immune anti-tumor activity and is a well-established therapeutic target in cancer therapy. Cancer cells were treated with vehicle control (DMSO), the fluoropyrimidine FUdR (also known as floxuridine) alone, Compound A alone, or the combination of Compound A and FUdR, and the expression level of the immune checkpoint protein PD-L1 was measured by both Western blotting and flow cytometry and compared to control. Cell lines assayed for total PD-L1 protein expression by Western blotting included, pancreatic cancer, PANC-1; non-small cell lung cancer, H460; colorectal cancer, HCT116; breast cancer, MCF-7; melanoma, MeWo. Two cell lines were advanced to analyze cell surface PD-L1 by flow cytometry, MCF-7 and PANC-1.
Western Blotting. Cells were cultured in the presence of the indicated concentrations of Compound A, 5-fluorodeoxyuridine (FUdR), or a combination of both in a P100 cell culture dishes for 12 or 24 hours. At the conclusion of specified time-points, cells were scraped in PBS containing NaF and Na3VO4, pelleted by centrifugation, washed with PBS and pelleted again. […] The concentration of the isolated supernatant was determined by BCA assay on a CLARIOstar microplate reader and the required volume of whole-cell lysate was denatured by the addition of Sample Buffer, Laemmli 2×Concentrate followed by boiling at 95° C. for 5 min. […] Images were analyzed in ImageJ to obtain PD-L1 relative density values which were normalised to relative density of loading control. Once the primary image acquisition was complete, the pre-cast gels and corresponding immunoblots were further imaged for total protein as a quality control measure following a UV-induced 1-minute reaction to produce fluorescence. […]

PD-L1 [2] = assay: Cell-surface PD-L1 expression by flow cytometry; settings: 12.5 μM Compound A, 1 μM FUdR; 24 hours
Experimental: as §1
Cell Surface Flow Cytometry. Cells were seeded in 6-well plates and permitted to adhere overnight. Media was removed and replaced with media containing the indicated concentrations of Compound A, FUdR or a combination of both, positive control cells were treated with IFNγ. Cells were then incubated for 24 hours. At the conclusion of specified timepoints, cells were washed with PBS and removed from the plates using trypsin-EDTA. Cells were counted and 300,000 cells were washed in staining buffer and incubated in PD-L1 or IgG antibody on ice for 40 minutes. Cells were then washed in staining buffer twice and finally resuspended in 300 μL of staining buffer and transferred to BD Falcon™ round-bottom tube. Dot plot for FSC v SSC were used to gate cell population and doublets were excluded on FL-4 histogram height versus area/width. IgG isotype control stained sample was used to identify the positively stained population. Percentage positive population and median fluorescent intensity values were exported and analyzed in Microsoft Excel and GraphPad Prism 6. Statistical analysis consisted of one-way ANOVA with Tukey's multiple comparisons testing.

HMGB1 = assay: Extracellular release of HMGB1 into cell culture media by ELISA; settings: 12.5 μM Compound A, 1 μM FUdR; 24 hours
Description: Experimental Overview. High mobility group box 1 (HMGB1) is a nuclear non-histone chromatin-binding protein. The release of HMGB1 by immune cells or severely damaged cancer cells functions as an immunostimulatory chemokine and is a well-known damage-associated molecular pattern (DAMP). The release of HMGB1 during cell death is characteristic of immunogenic cell death, a sub-class of cell death that results in the potent stimulation of the innate and subsequently the stimulation of adaptive immune responses. HMGB1 functions as a pro-inflammatory cytokine-like factor and can form hetero-complexes with other immune regulators. HMGB1 binds to TLRs, RAGE and CXCR4 on immune cells stimulating chemotaxis and the secretion of pro-inflammatory factors. HCT116 colon carcinoma and JU77 mesothelioma cells were treated with vehicle control (DMSO), 12.5 μM Compound A, 1 μM FUdR, or the combination of 12.5 μM Compound A and 1 μM FUdR for 24 hours and the release of HMGB1 into the extracellular culture media was measured by ELISA.
Cell Line Model Selection and Preparation. The HCT116 cancer cell line was purchased from ATCC. JU77 cell line was a kind gift from Dr Dan Longley, QUB. Cells were cultured and expanded in humidified incubators at 5% CO2 until sufficient cells were available.
Drug Preparation and Treatments. All drugs/compounds were prepared freshly in cell culture media from 50 mM frozen stocks prior to treatment. Cells were seeded in 6-well culture dishes and allowed to adhere overnight before treatment with Compound A, FUdR, or Compound A in combination with FUdR. Additional wells were treated with doxorubicin to act as a positive inducer of HMGB1. Twenty-four hours after treatment, the media was aspirated and centrifuged (2500 rpm, 5 min, at 4° C.) to remove any cellular debris. The supernatant was collected for immediate processing or stored at −80° C. for later assay.
Detection of HMGB1 Release. HMGB1 was quantified using the HMGB1 ELISA kit (ST51011, IBL International). Enzyme conjugate (HMGB1 conjugated to peroxidase) and standard were reconstituted in 12 ml enzyme conjugate diluent, and 1 ml diluent buffer respectively and aliquots frozen at −80° C. until required. All reagents and samples were brought to room temperature immediately prior to use. A standard curve was prepared for the high sensitive detection range (0.313-10 ng/ml). 50 μl diluent buffer was pipetted into each well of the microtiter plate. 50 μl of standard, sample, positive control or negative control (diluent buffer) was pipetted, in duplicate, into respective wells as determined by the plate set up. The plate was covered with adhesive foil and incubated at 37° C. for 20 to 24 hours on an orbital shaker (450 rpm). Following the incubation period the incubation solution was discarded and the plate washed (5×300 μl per well). Excess wash buffer was removed by inversion on to a paper towel. 100 μl enzyme conjugate was added to each well, the plate covered with adhesive foil and incubated at 25° C. for 2 hours on an orbital shaker (450 rpm). Following the incubation the solution was discarded and the plate washed as before. Fresh color solution was prepared immediately prior to use and 100 μl added to each well using a multichannel pipette. The plate was then incubated for 30 minutes at room temperature. The color reaction was stopped by pipetting 100 μl of stop reagent to each well using a multichannel pipette. The plate was shaken gently to mix and the backs of the wells were cleaned using a lint-free tissue. The concentration of HMGB1 was determined on a CLARIOstar microplate reader by measuring the absorbance at 450 nm using a reference reading at 640 nm. Data was exported to Microsoft Excel for processing and statistical analysis consisting of one-way ANOVA with Tukey's Multiple Comparisons Test was performed in GraphPad Prism 6.

calreticulin = assay: Cell surface calreticulin by flow cytometry; settings: 6.25 μM Compound A, 1 μM FUdR, 500 nmol/L doxorubicin; 4 hours
Description: Experimental Overview. Tumor cells undergoing immunogenic cell death (ICD) emit damage associated molecular patterns (DAMPs). ICD is a sub-class of cell death that results in the potent stimulation of the innate immune system and subsequently the stimulation of adaptive immune responses. The cell surface expression of calreticulin during cell death is one of several established DAMPs characteristic of immunogenic cell death. Calreticulin translocates from the endoplasmic reticulin to the cell membrane where it functions as a potent “eat me” signal for macrophages and dictates tumor antigen transfer and therefore the immunogenicity of cancer cell death. PANC1 pancreatic carcinoma cells were treated with vehicle control (DMSO), 6.25 μM Compound A, 1 μM FUdR, or the combination of 6.25 μM Compound A and 1 μM FUdR for 4 hours and the concentration of cell surface calreticulin was deteremined by flow cytometry.
Cell Line Model Selection and Preparation. The PANC1 pancreatic cancer cell line was purchased from ATCC. Cells were cultured and expanded in humidified incubators at 5% CO2 until sufficient cells were available.
Drug Preparation and Treatments. All drugs/compounds were prepared freshly in cell culture media from 50 mM frozen stocks prior to treatment. Cells were seeded in 6-well plates and permitted to adhere overnight. Media was removed and replaced with media containing 6.25 μM Compound A, 1 μM FUdR or a combination of 6.25 μM Compound A and 1 μM FUdR. […]
Detection of Cell Surface Calreticulin. Cell surface calreticulin was quantified by flow cytometry. […] Cells were counted and 300,000 cells were washed in staining buffer and incubated in Calreticulin (D3E6) XP Alexa Fluor 488 Conjugate antibody (Cell Signaling) or IgG antibody (negative control antibody) on ice for 40 minutes. […] The IgG isotype control stained sample was used to correctly identify the positively stained population in which median fluorescence intensity was determined. Median fluorescence intensity values were exported and analyzed in Microsoft Excel and GraphPad Prism 6. […]

cytoplasmic dsDNA = assay: Cytoplasmic dsDNA by fluorescence microscopy; settings: 12.5 μM Compound A, 1 μM FUdR; 24 hours
Experimental: Experimental Overview. Aberrant host DNA metabolism as a result of failed cell division or genotoxic stress leads to the release of nuclear DNA into the cytoplasm and is a well-known damage-associated molecular pattern. The subsequent detection of cytoplasmic double-stranded DNA (dsDNA) by pattern recognition receptors triggers a variety of innate immune signaling and biological responses. HCT116 colon and PANC-1 pancreatic carcinoma cells were seeded on coverslips and treated with vehicle control (DMSO), 12.5 μM Compound A, 1 μM FUdR, or the combination of 12.5 μM Compound A and 1 μM FUdR for 24 hours. At 24 hours post-treatment cells were fixed and stained with an anti-dsDNA (double-stranded DNA) antibody and the nuclear stain DAPI. Immunofluorescence was detected and images acquired by fluorescence microscopy to quantify levels of dsDNA in the cytoplasm.
Cell lines, Drug Treatments and Fluorescence Microscopy. HCT116 colon and PANC-1 pancreatic carcinoma cells (5×10^4) were seeded onto glass coverslips within 24-well plates in relevant media. The following day, seeding media was removed and replaced with drug-containing media and incubated for 24 hours. At 24 […] hours post-treatment cells were fixed and processed. Briefly, cell membranes were permeabilised, incubated with FITC-conjugated dsDNA marker antibody (HYB331-01) from Santa Cruz Biotechnology, sc-58749 (1:500 dilution) and mounted onto slides with ProLong Gold antifade with DAPI (Invitrogen P36931). Images were acquired on a Nikon Fluorescent Microscope. Exposure time was selected for FITC using negative and positive controls and kept constant throughout image acquisition. Images were analyzed using ImageJ software. Cell nuclei were identified using DAPI staining. Intensity of cytoplasmic dsDNA staining was established by quantifying the intensity of the staining in the immediate area surrounding the nucleus. Software settings: Gaps to ring=3 and Ring size=25 (FIG. 16).

Structure (SMILES)	total PD-L1 expression in HCT116, MCF-7, PANC-1 and Mewo cell lines (PD-L1 [1]; 1 μM FUdR, 12 and 24 hours, compared to control)	total PD-L1 expression in H460 cell line (PD-L1 [1]; PD-L1 high at baseline, 1 μM FUdR)	increase in cell-surface PD-L1 expression compared to control, MCF-7 cells (PD-L1 [2])	increase in cell-surface PD-L1 expression compared to control, PANC-1 cells (PD-L1 [2])	increase in concentration of HMGB1 in cell culture media compared to control, HCT116 cells (HMGB1)	increase in concentration of HMGB1 in cell culture media compared to control, JU77 cells (HMGB1)	increase in cell surface expression of calreticulin compared to control, PANC1 cells (calreticulin)	increase in mean relative cytoplasmic DNA compared to vehicle-treated control, HCT116 cells (cytoplasmic dsDNA)	increase in mean relative cytoplasmic DNA compared to vehicle-treated control, PANC-1 cells (cytoplasmic dsDNA)	total PD-L1 expression, all cell lines (PD-L1 [1]; MeWo, MCF-7, HCT116, H460, PANC-1, 12 and 24 hours)
O=c1[nH]c(=O)n([C@H]2C[C@H](O)[C@@H](CO)O2)cc1F [FUdR]	significant increase	did not induce	4.7 fold	~10 fold	no significant difference	no significant difference	no significant difference	no statistically significant difference	56%	–
C[C@@H](NS(=O)(=O)CCCCCN1CC(=O)NC1=O)c1ccc(F)c(OCC2CC2)c1 [Compound A]	–	–	No significant difference	the same as vehicle control cells	no significant difference	no significant difference	no significant difference	no statistically significant difference	74%	unchanged
COc1cccc2c1C(=O)c1c(O)c3c(c(O)c1C2=O)C[C@@](O)(C(=O)CO)C[C@@H]3O[C@H]1C[C@H](N)[C@H](O)[C@H](C)O1 [doxorubicin]	–	–	–	–	213%	failed to elicit any significant increase	450%	–	–	–
